Measurements published in patent publication US6180622A, “Imidazo[5,1-b]thiazol-3-yl carbapenem antimicrobials” (priority 1996, dated 2001).
Values after ≈ are worked out from the molar mass of the structure shown. Where two headings read alike, the source gives them in different places.

Legend:
C. freundii GN346 = assay: Antimicrobial activity (minimum inhibitory concentration); type: cell-based; conditions: Citrobacter freundii
Description: (§1) For representative compounds among the novel carbapenem derivatives of the present invention, the minimum inhibitory concentration (MIC, μg/ml) against various pathogenic bacteria was measured in accordance with a method described in CHEMOTHERAPY, Vol. 16, No. 1, 99 (1968).

E. cloacae G-0008 = assay: as above; type: cell-based; conditions: Enterobacter cloacae, G0008
Description: as §1

E. coli GN206 = assay: as above; type: cell-based; conditions: Escherichia coli
Description: as §1

E. coli NIHJ JC-2 = assay: as above; type: cell-based; conditions: Escherichia coli, NIHJJC2
Description: as §1

K. pneumoniae PCI602 = assay: as above; type: cell-based; conditions: Klebsiella pneumoniae
Description: as §1

M. morganii 1510 = assay: as above; type: cell-based; conditions: Morganella morganii
Description: as §1

P. vulgaris GN76 = assay: as above; type: cell-based; conditions: Proteus vulgaris
Description: as §1

Ps. aeruginosa GN10362 = assay: as above; type: cell-based; conditions: Pseudomonas aeruginosa
Description: as §1

S. aureus 209P JC-1 = assay: as above; type: cell-based; conditions: Staphylococcus aureus
Description: as §1

S. aureus M126 = assay: as above; type: cell-based; conditions: Staphylococcus aureus; S. aureus M126, highly meticillin-resistant strain
Description: as §1

S. marcescens No. 1 = assay: as above; type: cell-based; conditions: Serratia marcescens
Description: as §1

[1] = Stability against DHP-I (pig); type: in vitro ADME; conditions: kidney dhp-i, 100 μg (potency)/ml, 37° C., pH 7.0, read-out: residue (%) of the carbapenem derivative
Description: (§2) The stability of representative compounds, among the novel carbapenem derivatives of the present invention, against kidney dehydropeptidase-I (DHP-I) of a pig and a mouse was measured, and the residue (%) of the carbapenem derivatives three hr after the initiation of the test is summarized in Table 6.
(§3) 1.5 g of a kidney acetone powder (manufactured by Sigma) Porcine Type II (Lot. 33H7225) was suspended in 100 ml of 50 mM Tris-HCl buffer (pH 7.0) containing 20% butanol, and the suspension was stirred at 5° C. for 48 hr. The suspension was then dialyzed against 50 mM Tris-HCl buffer (pH 7.0) (a cellulose tube 30/32 Viskase Sales Corp.) until the odor of butanol disappeared, thereby removing butanol. The dialyzate is centrifuged at 10000×g (KUBOTA 6800) for 20 min, and the supernatant was obtained as a partially purified DHP-I. This partially purified DHP-I was subdivided and stored at -80° C. The above procedure was repeated, except that 1.5 g of Mouse (Lot. 23F8105) was used. Thus, a partially purified DHP-I was prepared and stored.
(§4) For the carbapenem as the substrate agent, a solution (2000 μg (potency)/ml) was prepared using sterilized, purified water. For the sample solution, the carbapenem (2000 μg (potency)/ml) solution was added to the partially purified DHP-I of each animal to a final concentration of 100 μg (potency)/ml). For the blank, 50 mM Tris-HCl buffer (pH 7.0) was used instead of the partially purified DHP-I of each animal. The reaction was allowed to proceed at 37° C. for 3 hr, and a given amount of the reaction mixture was sampled. Methanol in the same amount as the sampled reaction mixture was added under ice cooling to terminate the reaction. The reaction mixture was filtered through a filter (Sanprep LCR 13-LH manufactured by MILLIPORE) and subjected to HPLC (column: CAPCELL PACK C18SG120, manufactured by Shiseido Co., Ltd.; detection: UV; mobile layer: acetonitrile/10 mM aqueous acetic acid solution) to determined the residue (%).
(§5) Residue (%)=(Sample Peak Area/Blank Peak Area)×100

[2] = Stability against DHP-I (mouse); type: in vitro ADME; conditions: kidney dhp-i, 100 μg (potency)/ml, 37° C., pH 7.0, read-out: residue (%) of the carbapenem derivative
Description: as §2, §3, §4, §5

[3] = P. vulgaris GN76, read-out: MIC
[4] = Ps. aeruginosa GN10362, read-out: MIC

MIC (C. freundii GN346)	MIC (E. cloacae G-0008)	MIC (E. coli GN206)	MIC (E. coli NIHJ JC-2)	MIC (K. pneumoniae PCI602)	MIC (M. morganii 1510)	MIC (S. aureus 209P JC-1)	MIC (S. aureus M126)	MIC (S. marcescens No. 1)	remaining at 3 h [1]	remaining at 3 h [2]	MIC (P. vulgaris GN76; [3])	MIC (Ps. aeruginosa GN10362; [4])	Structure (SMILES)	MIC (P. vulgaris GN76; GN76)	MIC (Ps. aeruginosa GN10362; GN10362)
0.2 µg/mL (≈ 0.589 µM)	0.2 µg/mL (≈ 0.589 µM)	0.2 µg/mL (≈ 0.589 µM)	0.1 µg/mL (≈ 0.295 µM)	0.2 µg/mL (≈ 0.589 µM)	0.78 µg/mL (≈ 2.3 µM)	< 0.025 µg/mL	25 µg/mL (≈ 73.7 µM)	0.39 µg/mL (≈ 1.15 µM)	19%	28%	3.13 µg/mL (≈ 9.22 µM)	12.5 µg/mL (≈ 36.8 µM)	CC(=N)N1CC[C@H](SC2=C(C(=O)O)N3C(=O)[C@H]([C@@H](C)O)[C@H]3C2)C1 [Compound B, Panipenem, reference compound]	–	–
–	–	–	–	–	–	–	–	–	100%	97%	–	–	C[C@@H](O)[C@H]1C(=O)N2C(C(=O)O)=C(S[C@@H]3CN[C@H](Cc4csc5cncn45)C3)[C@H](C)[C@H]12 [Ex. 20, (1R,5S,6S)-6-((1R)-1-Hydroxyethyl)-2-[(3S,5R)-5-(imidazo[5,1-b]thiazol-3-yl)methylpyrrolidin-3-yl]thio-1-methylcarbapen-2-em-3-carboxylic acid]	–	–
0.05 µg/mL	0.05 µg/mL	0.05 µg/mL	0.05 µg/mL	0.1 µg/mL	0.39 µg/mL	< 0.025 µg/mL	6.25 µg/mL	0.2 µg/mL	95%	90%	0.39 µg/mL	0.78 µg/mL	C[C@@H](O)[C@H]1C(=O)N2C(C(=O)O)=C(S[C@@H]3CN[C@H](Cc4cn5c[n+](CC(N)=O)cc5s4)C3)[C@H](C)[C@H]12 [Ex. 26, (1R,5S,6S)-2-[(3S,5S)-5-[6-(Carbamoylmethyl)imidazo[5,1-b]thiazolium-2-yl]methylpyrrolidin-3-yl]thio-6-((1R)-1-hydroxyethyl)-1-methylcarbapen-2-em-3-carboxylic acid iodide]	–	–

Structure (SMILES)	MIC (C. freundii GN346)	MIC (E. cloacae G-0008)	MIC (E. coli GN206)	MIC (E. coli NIHJ JC-2)	MIC (K. pneumoniae PCI602)	MIC (M. morganii 1510)	MIC (S. aureus 209P JC-1)	MIC (S. aureus M126)	MIC (S. marcescens No. 1)	remaining at 3 h [1]	remaining at 3 h [2]	MIC (P. vulgaris GN76; [3])	MIC (Ps. aeruginosa GN10362; [4])	MIC (P. vulgaris GN76; GN76)	MIC (Ps. aeruginosa GN10362; GN10362)
C[C@@H](O)[C@H]1C(=O)N2C(C(=O)O)=C(SCCN=CN)C[C@H]12 [Compound A, Imipenem, reference compound]	0.1 µg/mL (≈ 0.334 µM)	0.1 µg/mL (≈ 0.334 µM)	0.1 µg/mL (≈ 0.334 µM)	0.1 µg/mL (≈ 0.334 µM)	0.39 µg/mL (≈ 1.3 µM)	0.78 µg/mL (≈ 2.61 µM)	< 0.025 µg/mL	50 µg/mL (≈ 167 µM)	0.39 µg/mL (≈ 1.3 µM)	24%	0.6%	–	–	3.13 µg/mL (≈ 10.5 µM)	1.56 µg/mL (≈ 5.21 µM)
